Source: patent US8642580B2, “Combined therapy against tumors comprising substituted acryloyl distamycin derivatives and platinum derivatives” (priority 2000, dated 2014)

Experiments:
[1] = system: disseminated L1210 murine leukemia; assay: Antileukemic activity against disseminated L1210 murine leukemia; assay type: in vivo; conditions: for ILS % (increase in life span): L1210 10^5 cells/mouse IV day 0; for ILS % (increase in life span) / Tox (number of toxic deaths/number of mice): PNU 166196 0.26 mg/kg/day iv days +1,2, combination same doses and schedule; for Toxicity (in words): single agents: cisplatin 5.9 mg/kg day +3, carboplatin 135 mg/kg day +3, PNU 166196 0.26 mg/kg days +1,2
[2] = system: human colon carcinoma HCT-116 (low/medium GST and MMR deficiency); assay: Antitumor activity against subcutaneous implanted HCT-116 human colon carcinoma; assay type: in vivo; conditions: for Log cell Kill total / WL % day of nadir / WL % / Tumor free/total mice: IV q7dx3; for Log cell Kill total / WL % day of nadir / WL % / T/C % (tumor regression) / Tumor free/total mice: PNU 166196 0.4 mg/kg, cisplatin 2 mg/kg; for WL %: at nadir; for T/C % (tumor regression): day 20 after treatment, IV q7dx3 from day 7 after implant, PNU 166196 48 hours after cisplatin, NCI: T/C ≦ 42 active; for Tumor free/total mice: on day 40 after tumor implant
[3] = Table 2, carboplatin 135 mg/kg iv day +3
[4] = Table 1, cisplatin 5.9 mg/kg iv day +3

SMILES	ILS % (increase in life span) [1, 3]	Tox (number of toxic deaths/number of mice) [1, 3]	Toxicity (in words) [1]	ILS % (increase in life span) [1, 4]	Log cell Kill total [2]	WL % day of nadir [2]	WL % [2]	T/C % (tumor regression) [2]	Tumor free/total mice [2]	Tox (number of toxic deaths/number of mice) [1, 4]	Toxicity (in words) ([2]; single agents: cisplatin 2 mg/kg q7dx3, PNU 166196 0.4 mg/kg q7dx3)
N.N.O=C([O-])C1(C(=O)[O-])CCC1.[Pt+2] [Carboplatin, carboplatin, reference compound]	50%	0/10	without toxicity								
N.N.[Cl][Pt][Cl] [Cisplatin, cisplatin, reference compound]				67%	0	24 days	12%	92%	0/7		
C=C(Br)C(=O)Nc1cc(C(=O)Nc2cc(C(=O)Nc3cc(C(=O)Nc4cc(C(=O)NCCNC(=N)N)n(C)c4)n(C)c3)n(C)c2)n(C)c1.Cl [PNU 166196, N-(5-{[(5-{[(5-{[(2-{[amino(imino)methyl]amino}ethyl)amino]carbonyl}-1-methyl-1H-pyrrol-3-yl)amino]carbonyl}-1-methyl-1H-pyrrol-3-yl)amino]carbonyl}-1-methyl-1H-pyrrol-3-yl)-4-[(2-bromoacryloyl)amino]-1-methyl-1H-pyrrole-2-carboxamide hydrochloride]	33%	0/10	without toxicity	33%	0.15	29 days	12%	61%	0/8	0/10	without toxicity
